Results from ChEMBL document CHEMBL5137026, “Novel deuterated Mnk1/2 protein degrader VNLG-152R analogs: Synthesis, In vitro Anti-TNBC activities and pharmacokinetics in mice” (Eur J Med Chem, 2022).
Values belong to the compound of their own block, whether it stands above or below them.

What was measured:
[1] = Cmax in po dosed CD-1 mouse by LC/MS/MS analysis; format: ADME, organism-based; design: route po; conditions: in vivo
[2] = Tmax in po dosed CD-1 mouse by LC/MS/MS analysis; format: ADME, organism-based; conditions: in vivo
MDA-MB-468 [3] = test: Antiproliferative activity against human MDA-MB-468 cells measured after 6 days by MTT assay; format: functional; conditions: MDA-MB-468, 144 h, time 6 day
[4] = Half life in po dosed CD-1 mouse by LC/MS/MS analysis; format: ADME, organism-based; conditions: in vivo
MDA-MB-231 [5] = test: Antiproliferative activity against human MDA-MB-231 cells measured after 6 days by MTT assay; format: functional; conditions: MDA-MB-231, 144 h, time 6 day
[6] = AUC in po dosed CD-1 mouse by LC/MS/MS analysis; format: ADME, organism-based; design: route po; conditions: in vivo
[7] = MRT in po dosed CD-1 mouse by LC/MS/MS analysis; format: ADME, organism-based; conditions: in vivo
MDA-MB-231 [8] = test: Downregulation of PeIF4E in human MDA-MB-231 cells measured after 24 hrs by SDS PAGE based Western blotting analysis; format: functional, cell-based
MDA-MB-468 [9] = test: Induction of apoptosis in human MDA-MB-468 cells assessed as downregulation of […] measured after 24 hrs by SDS PAGE based Western blotting analysis; format: functional, cell-based
MDA-MB-231 [10] = test: Induction of apoptosis in human MDA-MB-231 cells assessed as downregulation of Bcl-2 measured after 24 hrs by SDS PAGE based Western blotting analysis; format: functional, cell-based
MDA-MB-468 [11] = test: Induction of apoptosis in human MDA-MB-468 cells assessed as upregulation of Bax measured after 24 hrs by SDS PAGE based Western blotting analysis; format: functional, cell-based
MDA-MB-231 [12] = test: Induction of apoptosis in human MDA-MB-231 cells assessed as downregulation of […] measured after 24 hrs by SDS PAGE based Western blotting analysis; format: functional, cell-based
MDA-MB-231 [13] = test: Induction of apoptosis in human MDA-MB-231 cells assessed as upregulation of Bax measured after 24 hrs by SDS PAGE based Western blotting analysis; format: functional, cell-based
MDA-MB-468 [14] = test: Induction of apoptosis in human MDA-MB-468 cells assessed as downregulation of Bcl-2 measured after 24 hrs by SDS PAGE based Western blotting analysis; format: functional, cell-based
MDA-MB-231 [15] = test: Downregulation of Mnk1 in human MDA-MB-231 cells measured after 24 hrs by SDS PAGE based Western blotting analysis; format: functional, cell-based
MDA-MB-231 [16] = test: Antiproliferative activity against human MDA-MB-231 cells measured after 24 hrs by MTT assay; format: functional
[17] = dose 5-20 µM, DDE = dose-dependent effect
[18] = dose 5-20 µM, tested as the 2H-labelled form, DDE = dose-dependent effect
[19] = dose 5-20 µM, DDE = dose-dependent effect, tested as the 2H-labelled form

Cmax [1]: 1620 ng/mL | Tmax [2]: 2.67 h | GI50 (MDA-MB-468 [3]): 290 nM | half-life [4]: 10.3 h | GI50 (MDA-MB-231 [5]): 710 nM | AUC [6]: 22600 ng·h/mL | MRT [7]: 8.92 h
SMILES: [2H]c1nc([2H])n(C2([2H])CCC(C)(C)C(/C=C/C(C)=C/C=C/C(C)=C/C(=O)Nc3c([2H])c([2H])c(F)c([2H])c3[2H])=C2C)c1[2H] (racemic)

Cmax [1]: 501 ng/mL | Tmax [2]: 0.67 h | GI50 (MDA-MB-468 [3]): 270 nM | half-life [4]: 4.27 h | GI50 (MDA-MB-231 [5]): 830 nM | AUC [6]: 2700 ng·h/mL | MRT [7]: 5.49 h
SMILES: [2H]c1nc([2H])n(C2([2H])CCC(C)(C)C(/C=C/C(C)=C/C=C/C(C)=C/C(=O)Nc3ccc(F)cc3)=C2C)c1[2H] (racemic)

Cmax [1]: 455 ng/mL | Tmax [2]: 0.83 h | GI50 (MDA-MB-468 [3]): 250 nM | half-life [4]: 4.34 h | GI50 (MDA-MB-231 [5]): 620 nM | AUC [6]: 2060 ng·h/mL | MRT [7]: 2.89 h
SMILES: [2H]c1nc([2H])n(C2CCC(C)(C)C(/C=C/C(C)=C/C=C/C(C)=C/C(=O)Nc3c([2H])c([2H])c(F)c([2H])c3[2H])=C2C)c1[2H] (racemic)

Cmax [1]: 273 ng/mL | Tmax [2]: 0.83 h | GI50 (MDA-MB-468 [3]): 270 nM | half-life [4]: 4.9 h | GI50 (MDA-MB-231 [5]): 770 nM | AUC [6]: 1730 ng·h/mL | MRT [7]: 4.63 h
SMILES: [2H]c1c([2H])c(NC(=O)/C=C(C)/C=C/C=C(C)/C=C/C2=C(C)C(n3ccnc3)CCC2(C)C)c([2H])c([2H])c1F (racemic)

Cmax [1]: 151 ng/mL | Tmax [2]: 1.33 h | GI50 (MDA-MB-468 [3]): 280 nM | half-life [4]: 8.39 h | GI50 (MDA-MB-231 [5]): 710 nM | AUC [6]: 1740 ng·h/mL | MRT [7]: 3.57 h
SMILES: [2H]c1nc([2H])n(C2CCC(C)(C)C(/C=C/C(C)=C/C=C/C(C)=C/C(=O)Nc3ccc(F)cc3)=C2C)c1[2H] (racemic)

Cmax [1]: 1030 ng/mL | Tmax [2]: 2.5 h | GI50 (MDA-MB-468 [3]): 190 nM | half-life [4]: 12.1 h | GI50 (MDA-MB-231 [5]): 860 nM | AUC [6]: 17600 ng·h/mL | MRT [7]: 9.06 h
SMILES: [2H]C1(n2ccnc2)CCC(C)(C)C(/C=C/C(C)=C/C=C/C(C)=C/C(=O)Nc2ccc(F)cc2)=C1C (racemic)

Cmax [1]: 1360 ng/mL | Tmax [2]: 0.75 h | GI50 (MDA-MB-468 [3]): 270 nM | half-life [4]: 10.2 h | GI50 (MDA-MB-231 [5]): 620 nM | AUC [6]: 15500 ng·h/mL | MRT [7]: 8.48 h
SMILES: [2H]c1c([2H])c(NC(=O)/C=C(C)/C=C/C=C(C)/C=C/C2=C(C)C([2H])(n3ccnc3)CCC2(C)C)c([2H])c([2H])c1F (racemic)

Cmax [1]: 4650 ng/mL | Tmax [2]: 0.83 h | GI50 (MDA-MB-468 [3]): 400 nM | half-life [4]: 3.61 h | GI50 (MDA-MB-231 [5]): 830 nM | AUC [6]: 22800 ng·h/mL | MRT [7]: 3.02 h
SMILES: CC1=C(/C=C/C(C)=C/C=C/C(C)=C/C(=O)Nc2ccc(F)cc2)C(C)(C)CCC1n1ccnc1 (racemic; form 1) [listing 1 of 2 here]

SMILES: CC1=C(/C=C/C(C)=C/C=C/C(C)=C/C(=O)Nc2ccc(F)cc2)C(C)(C)CCC1n1ccnc1 (racemic; form 1) [listing 2 of 2 here]
Activity (MDA-MB-231 [8]; [17]): Dde | Activity (MDA-MB-468 [9]; [17]): Dde | Activity (MDA-MB-231 [10]; [17]): Dde | Activity (MDA-MB-468 [11]; [17]): Dde | Activity (MDA-MB-231 [12]; [17]): Dde | Activity (MDA-MB-231 [13]; [17]): Dde | Activity (MDA-MB-468 [14]; [17]): Dde | Activity (MDA-MB-231 [15]; [17]): Dde

SMILES: CC1=C(/C=C/C(C)=C/C=C/C(C)=C/C(=O)Nc2ccc(F)cc2)C(C)(C)CCC1n1ccnc1 (racemic; form 2)
Activity (MDA-MB-231 [8]; [18]): Dde | Activity (MDA-MB-468 [9]; [19]): Dde | Activity (MDA-MB-231 [10]; [19]): Dde | Activity (MDA-MB-468 [11]; [18]): Dde | Activity (MDA-MB-231 [12]; [18]): Dde | Activity (MDA-MB-231 [13]; [18]): Dde | Activity (MDA-MB-468 [14]; [18]): Dde | Activity (MDA-MB-231 [15]; [18]): Dde

SMILES: CC1=C(/C=C/C(C)=C/C=C/C(C)=C/C(=O)Nc2ccc(F)cc2)C(C)(C)CCC1n1ccnc1 (racemic; form 3)
Activity (MDA-MB-231 [8]; [19]): Dde | Activity (MDA-MB-468 [9]; [18]): Dde | Activity (MDA-MB-231 [10]; [19]): Dde | Activity (MDA-MB-468 [11]; [18]): Dde | Activity (MDA-MB-231 [12]; [19]): Dde | Activity (MDA-MB-231 [13]; [19]): Dde | Activity (MDA-MB-468 [14]; [18]): Dde | Activity (MDA-MB-231 [15]; [19]): Dde

SMILES: CC1=C(/C=C/C(C)=C/C=C/C(C)=C/C(=O)Nc2ccc(F)cc2)C(C)(C)CCC1n1ccnc1 (racemic; form 4)
Activity (MDA-MB-231 [8]; [19]): Dde | Activity (MDA-MB-468 [9]; [18]): Dde | Activity (MDA-MB-231 [10]; [19]): Dde | Activity (MDA-MB-468 [11]; [19]): Dde | Activity (MDA-MB-231 [12]; [19]): Dde | Activity (MDA-MB-231 [13]; [18]): Dde | Activity (MDA-MB-468 [14]; [18]): Dde | Activity (MDA-MB-231 [15]; [19]): Dde

SMILES: CC1=C(/C=C/C(C)=C/C=C/C(C)=C/C(=O)Nc2ccc(F)cc2)C(C)(C)CCC1n1ccnc1 (racemic; form 5)
Activity (MDA-MB-231 [8]; [18]): Dde | Activity (MDA-MB-468 [9]; [18]): Dde | Activity (MDA-MB-231 [10]; [18]): Dde | Activity (MDA-MB-468 [11]; [19]): Dde | Activity (MDA-MB-231 [12]; [18]): Dde | Activity (MDA-MB-231 [13]; [18]): Dde | Activity (MDA-MB-468 [14]; [19]): Dde | Activity (MDA-MB-231 [15]; [18]): Dde

SMILES: CC1=C(/C=C/C(C)=C/C=C/C(C)=C/C(=O)Nc2ccc(F)cc2)C(C)(C)CCC1n1ccnc1 (racemic; form 6)
Activity (MDA-MB-231 [8]; [18]): Dde | Activity (MDA-MB-468 [9]; [19]): Dde | Activity (MDA-MB-231 [10]; [18]): Dde | Activity (MDA-MB-468 [11]; [18]): Dde | Activity (MDA-MB-231 [12]; [18]): Dde | Activity (MDA-MB-231 [13]; [19]): Dde | Activity (MDA-MB-468 [14]; [18]): Dde | Activity (MDA-MB-231 [15]; [18]): Dde

SMILES: CC1=C(/C=C/C(C)=C/C=C/C(C)=C/C(=O)Nc2ccc(F)cc2)C(C)(C)CCC1n1ccnc1 (racemic; form 7)
Activity (MDA-MB-231 [8]; [18]): Dde | Activity (MDA-MB-468 [9]; [19]): Dde | Activity (MDA-MB-231 [10]; [19]): Dde | Activity (MDA-MB-468 [11]; [19]): Dde | Activity (MDA-MB-231 [12]; [18]): Dde | Activity (MDA-MB-231 [13]; [18]): Dde | Activity (MDA-MB-468 [14]; [19]): Dde | Activity (MDA-MB-231 [15]; [18]): Dde

SMILES: CC1=C(/C=C/C(C)=C/C=C/C(C)=C/C(=O)Nc2ccc(F)cc2)C(C)(C)CCC1n1ccnc1 (racemic; form 8)
Activity (MDA-MB-231 [8]; [18]): Dde | Activity (MDA-MB-468 [9]; [19]): Dde | Activity (MDA-MB-231 [10]; [19]): Dde | Activity (MDA-MB-468 [11]; [19]): Dde | Activity (MDA-MB-231 [12]; [19]): Dde | Activity (MDA-MB-231 [13]; [18]): Dde | Activity (MDA-MB-468 [14]; [18]): Dde | Activity (MDA-MB-231 [15]; [19]): Dde

GI50 (MDA-MB-468 [3]): 100 nM | GI50 (MDA-MB-231 [5]): 220 nM | GI50 (MDA-MB-231 [16]): 300 nM
SMILES: CC(=O)O[C@H]1C(=O)[C@@]2(C)[C@H]([C@H](OC(=O)c3ccccc3)[C@]3(O)C[C@H](OC(=O)[C@H](O)[C@@H](NC(=O)c4ccccc4)c4ccccc4)C(C)=C1C3(C)C)[C@]1(OC(C)=O)CO[C@@H]1C[C@@H]2O [PACLITAXEL]
